The values below come from patent publication US20240228535A1 (priority 2022, published 2024).

Each structure is given as a SMILES string.

This assay addresses SARS2 coronavirus 3CL protease (Severe acute respiratory syndrome coronavirus 2, UniProt P0DTD1). In words: biochemical. The following applies: 5 nM enzyme, 30 min pre-incubation with compound, 15 μM peptide substrate, 4 h at room temperature; read-out: FRET Potency (nM); IC50 values in the SARS2 3CLPro FRET assay.
On to `CNC(=O)C(=O)[C@H](C[C@@H]1CCNC1=O)NC(=O)c1cc(Cl)ccc1NC(=O)OC1CC1(F)F` (stereo partly drawn) [Example 157, (2,2-difluorocyclopropyl) N-[4-chloro-2-[[(1S)-3-(methylamino)-2,3-dioxo-1-[[(3S)-2-oxopyrrolidin-3-yl]methyl]propyl]carbamoyl]phenyl]carbamate], for which the IC50 stood at 8.9 nM. Then `C[C@@H]1C[C@@H](C[C@H](NC(=O)c2cc(Cl)ccc2NC(=O)CCC(F)(F)F)C(=O)C(N)=O)C(=O)N1` [Example 158, N-[(1S)-3-amino-1-[[(3S,5R)-5-methyl-2-oxo-pyrrolidin-3-yl]methyl]-2,3-dioxo-propyl]-5-chloro-2-(4,4,4-trifluorobutanoylamino) benzamide], with 8.3 nM. Then `CNC(=O)C(=O)[C@H](C[C@@H]1CCNC1=O)NC(=O)c1cc(Cl)ccc1NC(=O)CCC(F)(F)F` [Example 159, 5-chloro-N-[(1S)-3-(methylamino)-2,3-dioxo-1-[[(3S)-2-oxopyrrolidin-3-yl]methyl]propyl]-2-(4,4,4-trifluorobutanoylamino) benzamide], with 7.9 nM.

For the compound `C[C@@H]1C[C@@H](C[C@H](NC(=O)c2cc(Cl)ccc2NC(=O)OC2CC2)C(=O)C(=O)NC2CC2)C(=O)N1` [Example 160, cyclopropyl N-[4-chloro-2-[[(1S)-3-(cyclopropylamino)-1-[[(3S,5R)-5-methyl-2-oxo-pyrrolidin-3-yl]methyl]-2,3-dioxo-propyl]carbamoyl]phenyl] carbamate], the IC50 is 8.8 nM. Next, `O=C(Nc1ccc(Cl)cc1C(=O)N[C@@H](C[C@@H]1CCNC1=O)C(=O)C(=O)NC1CC1)OC1CCC1` [Example 161, cyclobutyl N-[4-chloro-2-[[(1S)-3-(cyclopropylamino)-2,3-dioxo-1-[[(3S)-2-oxopyrrolidin-3-yl]methyl]propyl]carbamoyl]phenyl]carbamate]: 5.9 nM; `O=C(Nc1ccc(Cl)cc1C(=O)N[C@@H](C[C@@H]1CCNC1=O)C(=O)C(=O)NC1CC1)OCC1CC1` [Example 162, cyclopropylmethyl N-[4-chloro-2-[[(1S)-3-(cyclopropylamino)-2,3-dioxo-1-[[(3S)-2-oxopyrrolidin-3-yl]methyl]propyl]carbamoyl]phenyl]carbamate]: 7.5 nM; `CNC(=O)C(=O)[C@H](C[C@@H]1CCNC1=O)NC(=O)c1cc(Cl)ccc1NC(=O)OCC(F)(F)F` [Example 163, 2,2,2-trifluoroethyl N-[4-chloro-2-[[(1S)-3-(methylamino)-2,3-dioxo-1-[[(3S)-2-oxopyrrolidin-3-yl]methyl]propyl]carbamoyl]phenyl]carbamate]: 8.6 nM. Next, `CO[C@H](C)C(=O)Nc1ccc(Cl)cc1C(=O)N[C@@H](C[C@@H]1C[C@@H](C)NC1=O)C(=O)C(=O)NC1CC1` [Example 164, 5-chloro-N-[(1S)-3-(cyclopropylamino)-1-[[(3S,5R)-5-methyl-2-oxo-pyrrolidin-3-yl]methyl]-2,3-dioxo-propyl]-2-[[(2R)-2-methoxypropanoyl]amino] benzamide]: 4.8 nM; `C[C@@H]1C[C@@H](C[C@H](NC(=O)c2cc(Cl)ccc2NC(=O)C(C)(C)O)C(=O)C(=O)NC2CC2)C(=O)N1` [Example 165, 5-chloro-N-[(1S)-3-(cyclopropylamino)-1-[[(3S,5R)-5-methyl-2-oxo-pyrrolidin-3-yl]methyl]-2,3-dioxo-propyl]-2-[(2-hydroxy-2-methyl-propanoyl)amino]benzamide]: 6.3 nM; `CO[C@@H](C)C(=O)Nc1ccc(Cl)cc1C(=O)N[C@@H](C[C@@H]1C[C@@H](C)NC1=O)C(=O)C(=O)NC1CC1` [Example 166, 5-chloro-N-[(1S)-3-(cyclopropylamino)-1-[[(3S,5R)-5-methyl-2-oxo-pyrrolidin-3-yl]methyl]-2,3-dioxo-propyl]-2-[[(2S)-2-methoxypropanoyl]amino] benzamide]: 10.1 nM. Regarding `CNC(=O)C(=O)[C@H](C[C@@H]1C[C@@H](C)NC1=O)NC(=O)c1cc(Cl)ccc1NC(=O)OC1CCCC1` [Example 167, cyclopentyl N-[4-chloro-2-[[(1S)-3-(methylamino)-1-[[(3S,5R)-5-methyl-2-oxo-pyrrolidin-3-yl]methyl]-2,3-dioxo-propyl]carbamoyl]phenyl] carbamate], the IC50 was 5.5 nM. As to `O=C(NC1CC1)C(=O)[C@H](C[C@@H]1CCNC1=O)NC(=O)c1cc(Cl)ccc1NC(=O)[C@H]1CC1(F)F` [Example 168], the IC50 was 12 nM. Next, `CNC(=O)C(=O)[C@H](C[C@@H]1C[C@@H](C)NC1=O)NC(=O)c1cc(C(F)(F)F)ccc1NC(=O)OC1CC1` [Example 169, cyclopropyl N-[2-[(1S)-3-(methylamino)-1-[[(3S,5R)-5-methyl-2-oxo-pyrrolidin-3-yl]methyl]-2,3-dioxo-propyl]carbamoyl]-4-(trifluoromethyl)phenyl] carbamate]: 75.3 nM; `CNC(=O)C(=O)[C@H](C[C@@H]1C[C@@H](C)NC1=O)NC(=O)c1cc(Cl)c(Cl)cc1NC(=O)OC1CC1` [Example 170, cyclopropyl N-[4,5-dichloro-2-[[(1S)-3-(methylamino)-1-[[(3S,5R)-5-methyl-2-oxo-pyrrolidin-3-yl]methyl]-2,3-dioxo-propyl]carbamoyl]phenyl] carbamate]: 10.5 nM; `CNC(=O)C(=O)[C@H](C[C@@H]1C[C@@H](C)NC1=O)NC(=O)c1cc(Cl)ccc1NC(=O)OC1CC1(F)F` (stereo partly drawn) [Example 171, (2,2-difluorocyclopropyl) N-[4-chloro-2-[(1S)-3-(methylamino)-1-[[(3S,5R)-5-methyl-2-oxo-pyrrolidin-3-yl]methyl]-2,3-dioxo-propyl]carbamoyl]phenyl] carbamate]: 3.2 nM. Then `CNC(=O)C(=O)[C@H](C[C@@H]1C[C@@H](C)NC1=O)NC(=O)c1cc(Cl)ccc1NC(=O)OC1CC1(F)F` (stereo partly drawn) [Example 172, (2,2-difluorocyclopropyl) N-[4-chloro-2-[(1S)-3-(methylamino)-1-[[(3S,5R)-5-methyl-2-oxo-pyrrolidin-3-yl]methyl]-2,3-dioxo-propyl]carbamoyl]phenyl] carbamate], with 3.7 nM. Then `CNC(=O)C(=O)[C@H](C[C@@H]1CCNC1=O)NC(=O)c1cc(Cl)ccc1NC(=O)OC1CC(F)(F)C1` [Example 173], with 6.7 nM; and `CNC(=O)C(=O)[C@H](C[C@@H]1CCNC1=O)NC(=O)c1cc(Cl)ccc1NC(=O)OCc1ccccc1` [Example 174], with 6.5 nM.

As to `CNC(=O)C(=O)[C@H](C[C@@H]1CCNC1=O)NC(=O)c1cc(Cl)ccc1NC(=O)C1CC1C(F)(F)F` (stereo partly drawn) [Example 175], the IC50 was 2.8 nM.

For `CNC(=O)C(=O)[C@H](C[C@@H]1CCNC1=O)NC(=O)c1cc(Cl)ccc1NC(=O)C1CC1C(F)(F)F` (stereo partly drawn) [Example 176, 5-chloro-N-[(1S)-3-(methylamino)-2,3-dioxo-1-[[(3S)-2-oxopyrrolidin-3-yl]methyl]propyl]-2-[[2-(trifluoromethyl)cyclopropane-carbonyl]amino]benzamide], the IC50 is 2.5 nM. Next, `C[C@@H]1C[C@@H](C[C@H](NC(=O)c2cc(Cl)ccc2NC(=O)C(F)(F)F)C(=O)C(=O)NC2CC2)C(=O)N1` [Example 177, 5-chloro-N-[(1S)-3-(cyclopropylamino)-1-[[(3S,5R)-5-methyl-2-oxo-pyrrolidin-3-yl]methyl]-2,3-dioxo-propyl]-2-[(2,2,2-trifluoroacetyl)amino] benzamide]: 10.9 nM.
